In patent publication US20250145633A1, “SUBSTITUTED FURANOPYRIMIDINE COMPOUNDS AS PDE1 INHIBITORS” (Dart NeuroScience, LLC, priority 2017, published 2025):

Biological target: human PDE1B enzyme (Homo sapiens (Human), UniProt Q01064)
Assay: IMAP TR-FRET PDE1B enzymatic assay
Format: biochemical
Settings: negative log of half-maximal molar inhibitory concentration, 200 nM FAM-cAMP, values given as bins; for IC50: read-out: PDE1b (pIC50) (converted)
Procedure, shortened: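 Full-length GST-tagged human PDE1B (250 pg/well) in IMAP BSA buffer with 10 U/ml calmodulin and 2.5 mM CaCl2; compound pre-incubated 5 min at room temperature, then 200 nM (final) FAM-cAMP for 30 min. IMAP binding reagent/Tb added, 1 h; TR-FRET 520/490 ratio read. IC50 from sigmoidal dose-response fit.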

Row | SMILES | IC50 [nM] | PDE1b (pIC50)
1 | Cc1oc2ncnc(NC3(C)CC3)c2c1C(=O)Nc1cnn(Cc2ccccn2)c1 [Example 472, 6-Methyl-4-[(1-methylcyclopropyl)amino]-N-[1-(pyridin-2-ylmethyl)-1H-pyrazol-4-yl]furo[2,3-d]pyrimidine-5-carboxamide] | 10 to 100 | 
2 | Cc1oc2ncnc(NC3(C)CC3)c2c1C(=O)Nc1cnn(-c2ncccn2)c1 [Example 473, 6-Methyl-4-[(1-methylcyclopropyl)amino]-N-[1-(pyrimidin-2-yl)-1H-pyrazol-4-yl]furo[2,3-d]pyrimidine-5-carboxamide] | 10 to 100 | 
3 | CCC(NC(=O)c1c(C)oc2ncnc(NC3(C)CC3)c12)c1ccc(OC)cc1 (stereo not shown) [Example 475, N-[1-(4-Methoxyphenyl)propyl]-6-methyl-4-[(1-methylcyclopropyl)amino]furo[2,3-d]pyrimidine-5-carboxamide] |  | >8
4 | COc1ccc(CNC(=O)c2c(C)oc3ncnc(NC4(C)CC4)c23)cc1F [Example 483, N-[(3-Fluoro-4-methoxyphenyl)methyl]-6-methyl-4-[(1-methylcyclopropyl)amino]furo[2,3-d]pyrimidine-5-carboxamide] |  | >8
5 | COc1cc(CNC(=O)c2c(C)oc3ncnc(NC4(C)CC4)c23)ccc1O [Example 487, N-[(4-Hydroxy-3-methoxyphenyl)methyl]-6-methyl-4-[(1-methylcyclopropyl)amino]furo[2,3-d]pyrimidine-5-carboxamide] | 10 to 100 | 
6 | COc1ccc(CNC(=O)c2c(C)oc3ncnc(NC4(C)CC4)c23)cc1Cl [Example 488, N-[(3-Chloro-4-methoxyphenyl)methyl]-6-methyl-4-[(1-methylcyclopropyl)amino]furo[2,3-d]pyrimidine-5-carboxamide] |  | >8
7 | CCN(Cc1ccc(OC)cc1)C(=O)c1c(C)oc2ncnc(NC3(C)CC3)c12 [Example 489, N-ethyl-N-[(4-Methoxyphenyl)methyl]-6-methyl-4-[(1-methylcyclopropyl)amino]furo[2,3-d]pyrimidine-5-carboxamide] | 10 to 100 | 
8 | COc1cc(CNC(=O)c2c(C)oc3ncnc(NC4(C)CC4)c23)cc(OC)c1 [Example 495, N-[(3,5-Dimethoxyphenyl)methyl]-6-methyl-4-[(1-methylcyclopropyl)amino]furo[2,3-d]pyrimidine-5-carboxamide] | 10 to 100 | 
9 | COc1c(C)cnc(CN(C)C(=O)c2c(C)oc3ncnc(NC4(C)CC4)c23)c1C [Example 498, N-[(4-Methoxy-3,5-dimethylpyridin-2-yl)methyl]-N,6-dimethyl-4-[(1-methylcyclopropyl)amino]furo[2,3-d]pyrimidine-5-carboxamide] | 10 to 100 | 
10 | Cc1oc2ncnc(NC3(C)CC3)c2c1C(=O)N1C[C@H]2CC[C@@H](C1)O2 [Example 499, 6-Methyl-N-(1-methylcyclopropyl)-5-[(1R,5S)-8-oxa-3-azabicyclo[3.2.1]octane-3-carbonyl]furo[2,3-d]pyrimidin-4-amine] | 100 to 1000 | 
11 | COc1ccc(C(C)NC(=O)c2c(C)oc3ncnc(NC4(C)CC4)c23)cc1C (stereo not shown) [Example 502, N-[1-(4-Methoxy-3-methylphenyl)ethyl]-6-methyl-4-[(1-methylcyclopropyl)amino]furo[2,3-d]pyrimidine-5-carboxamide] |  | >8
12 | C=CCN(Cc1ccc(OC)cc1)C(=O)c1c(C)oc2ncnc(NC3(C)CC3)c12 [Example 508, N-[(4-Methoxyphenyl)methyl]-6-methyl-4-[(1-methylcyclopropyl)amino]-N-(prop-2-en-1-yl)furo[2,3-d]pyrimidine-5-carboxamide] | 10 to 100 | 
13 | CCOc1ccc(CNC(=O)c2c(C)oc3ncnc(NC4(C)CC4)c23)cc1OC [Example 509, N-[(4-Ethoxy-3-methoxyphenyl)methyl]-6-methyl-4-[(1-methylcyclopropyl)amino]furo[2,3-d]pyrimidine-5-carboxamide] | 10 to 100 | 
14 | COc1ccc(C(C)N(C)C(=O)c2c(C)oc3ncnc(NC4(C)CC4)c23)cc1F (stereo not shown) [Example 510, N-[1-(3-Fluoro-4-methoxyphenyl)ethyl]-N,6-dimethyl-4-[(1-methylcyclopropyl)amino]furo[2,3-d]pyrimidine-5-carboxamide] | 10 to 100 | 
15 | Cc1oc2ncnc(NC3(C)CC3)c2c1C(=O)NC(CO)c1ccc(F)cc1 (stereo not shown) [Example 513, N-[1-(4-Fluorophenyl)-2-hydroxyethyl]-6-methyl-4-[(1-methylcyclopropyl)amino]furo[2,3-d]pyrimidine-5-carboxamide] | 10 to 100 | 
16 | C#CC(C)(C)NC(=O)c1c(C)oc2ncnc(NC3(C)CC3)c12 [Example 520, 6-Methyl-N-(2-methylbut-3-yn-2-yl)-4-[(1-methylcyclopropyl)amino]furo[2,3-d]pyrimidine-5-carboxamide] | 10 to 100 | 
17 | Cc1oc2ncnc(NC3(C)CC3)c2c1C(=O)N1CCN(c2ccc(F)cc2S(C)(=O)=O)CC1 [Example 521] | 10 to 100 | 

Row | SMILES | IC50 [nM] | PDE1b (pIC50)
18 | Cc1oc2ncnc(NC3(C)CC3)c2c1C(=O)N1CCN(c2ccc(S(C)(=O)=O)cc2F)CC1C (stereo not shown) [Example 522, 5-[4-(2-Fluoro-4-methanesulfonylphenyl)-2-methylpiperazine-1-carbonyl]-6-methyl-N-(1-methylcyclopropyl)furo[2,3-d]pyrimidin-4-amine] | 10 to 100 | 
19 | COc1ccc(CNC(=O)c2c(C)oc3ncnc(NC4(C)CC4)c23)c(C)c1 [Example 524, N-[(4-Methoxy-2-methylphenyl)methyl]-6-methyl-4-[(1-methylcyclopropyl)amino]furo[2,3-d]pyrimidine-5-carboxamide] | 10 to 100 | 
20 | COc1cc(F)ccc1CNC(=O)c1c(C)oc2ncnc(NC3(C)CC3)c12 [Example 525, N-[(4-Fluoro-2-methoxyphenyl)methyl]-6-methyl-4-[(1-methylcyclopropyl)amino]furo[2,3-d]pyrimidine-5-carboxamide] | 10 to 100 | 
21 | COc1ccccc1CN(C)C(=O)c1c(C)oc2ncnc(NC3(C)CC3)c12 [Example 528, N-[(2-Methoxyphenyl)methyl]-N,6-dimethyl-4-[(1-methylcyclopropyl)amino]furo[2,3-d]pyrimidine-5-carboxamide] | 10 to 100 | 
22 | Cc1oc2ncnc(NC3(C)CC3)c2c1C(=O)N1CCC(c2ncccc2F)C1 (stereo not shown) [Example 529, 5-[3-(3-Fluoropyridin-2-yl)pyrrolidine-1-carbonyl]-6-methyl-N-(1-methylcyclopropyl)furo[2,3-d]pyrimidin-4-amine] | 10 to 100 | 
23 | COc1ccc(C2CCN(C(=O)c3c(C)oc4ncnc(NC5(C)CC5)c34)CC2)nc1F [Example 530, 5-[4-(6-Fluoro-5-methoxypyridin-2-yl)piperidine-1-carbonyl]-6-methyl-N-(1-methylcyclopropyl)furo[2,3-d]pyrimidin-4-amine] | 10 to 100 | 
24 | Cc1oc2ncnc(NC3(C)CC3)c2c1C(=O)N1CCC(c2cccc(F)n2)C1 (stereo not shown) [Example 532, 5-[3-(6-Fluoropyridin-2-yl)pyrrolidine-1-carbonyl]-6-methyl-N-(1-methylcyclopropyl)furo[2,3-d]pyrimidin-4-amine] |  | >8
25 | Cc1oc2ncnc(NC3(C)CC3)c2c1C(=O)NCc1cc(C#N)ccc1F [Example 533, N-[(5-Cyano-2-fluorophenyl)methyl]-6-methyl-4-[(1-methylcyclopropyl)amino]furo[2,3-d]pyrimidine-5-carboxamide] |  | >8
26 | Cc1oc2ncnc(NC3(C)CC3)c2c1C(=O)NCc1ccc(Cl)cc1F [Example 534, N-[(4-Chloro-2-fluorophenyl)methyl]-6-methyl-4-[(1-methylcyclopropyl)amino]furo[2,3-d]pyrimidine-5-carboxamide] | 10 to 100 | 
27 | Cc1oc2ncnc(NC3(C)CC3)c2c1C(=O)N1CCNC(c2ccc(F)cc2)C1 (stereo not shown) [Example 536, 5-[3-(4-Fluorophenyl)piperazine-1-carbonyl]-6-methyl-N-(1-methylcyclopropyl)furo[2,3-d]pyrimidin-4-amine] |  | >8
28 | COc1ccc(CCNC(=O)c2c(C)oc3ncnc(NC4(C)CC4)c23)cc1OC [Example 545, N-[2-(3,4-Dimethoxyphenyl)ethyl]-6-methyl-4-[(1-methylcyclopropyl)amino]furo[2,3-d]pyrimidine-5-carboxamide] | 10 to 100 | 
29 | COc1cccc(F)c1CNC(=O)c1c(C)oc2ncnc(NC3(C)CC3)c12 [Example 547, N-[(2-Fluoro-6-methoxyphenyl)methyl]-6-methyl-4-[(1-methylcyclopropyl)amino]furo[2,3-d]pyrimidine-5-carboxamide] | 10 to 100 | 
30 | COc1ccc(CNC(=O)c2c(C)oc3ncnc(NC4(C)CC4)c23)c(Cl)c1 [Example 551, N-[(2-Chloro-4-methoxyphenyl)methyl]-6-methyl-4-[(1-methylcyclopropyl)amino]furo[2,3-d]pyrimidine-5-carboxamide] | 10 to 100 | 
31 | CCOc1cccc(F)c1CNC(=O)c1c(C)oc2ncnc(NC3(C)CC3)c12 [Example 552, N-[(2-Ethoxy-6-fluorophenyl)methyl]-6-methyl-4-[(1-methylcyclopropyl)amino]furo[2,3-d]pyrimidine-5-carboxamide] | 10 to 100 | 
32 | COc1ccccc1OCCNC(=O)c1c(C)oc2ncnc(NC3(C)CC3)c12 [Example 557, N-[2-(2-Methoxyphenoxy)ethyl]-6-methyl-4-[(1-methylcyclopropyl)amino]furo[2,3-d]pyrimidine-5-carboxamide] |  | >8
33 | COc1ccccc1OCCN(C)C(=O)c1c(C)oc2ncnc(NC3(C)CC3)c12 [Example 558, N-[2-(2-Methoxyphenoxy)ethyl]-N,6-dimethyl-4-[(1-methylcyclopropyl)amino]furo[2,3-d]pyrimidine-5-carboxamide] | 10 to 100 | 
34 | Cc1oc2ncnc(NC3(C)CC3)c2c1C(=O)NCCOc1ccccc1F [Example 559, N-[2-(2-Fluorophenoxy)ethyl]-6-methyl-4-[(1-methylcyclopropyl)amino]furo[2,3-d]pyrimidine-5-carboxamide] |  | >8
